Reference: ChEMBL document CHEMBL1139152, “Epoxygenase eicosanoids: synthesis of tetrahydrofuran-diol metabolites and their vasoactivity” (Bioorg Med Chem Lett, 2007)
The source made the active and inactive calls. The rule behind the calls is not given here.

Experiments:
[1] = Vasodilatory activity assessed as relaxation of U46619-induced contraction of bovine coronary arteries at 10 nM to 10 uM; assay type: functional, tissue-based; details: Bos taurus, Coronary artery
[2] = Vasodilatory activity assessed as relaxation of U46619-induced contraction of bovine coronary arteries; assay type: functional; details: Bos taurus; Coronary artery

SMILES | Activity [1] | ED50 [2] [nM]
CCCCC/C=C\C[C@H]1O[C@H]([C@@H](O)C/C=C\CCCC(=O)O)C[C@@H]1O | Active | 
CCCCC/C=C\C[C@@H]1O[C@H]([C@H](O)C/C=C\CCCC(=O)O)C[C@H]1O | Active | 
CCCCCC1OC1C/C=C/C/C=C/C/C=C/CCCC(=O)O (centres undefined) | Active | 2500
CCCCC/C=C\C[C@@H]1O[C@H]([C@H](O)C/C=C\CCCC(=O)O)C[C@@H]1O | Active | 
CCCCC/C=C\C[C@H]1O[C@H]([C@H](O)C/C=C\CCCC(=O)O)C[C@@H]1O | Active | 
CCCCC/C=C\C[C@H]1O[C@H]([C@H](O)C/C=C\CCCC(=O)O)C[C@H]1O | Active | 3000
CCCCC/C=C\C[C@H]1O[C@H]([C@@H](O)C/C=C\CCCC(=O)O)C[C@H]1O | Active | 
